Measurements published in US10669272B2, “Substituted naphthyridinone compounds useful as T cell activators” (BRISTOL-MYERS SQUIBB COMPANY, priority 2018, dated 2020).
Where two headings read alike, the source gives them in different places.

Experiments:
human DGKα = target: T1, human DGKα (Homo sapiens, UniProt P23743); assay: DGKα LIPGLO assay (extruded liposome substrate), in vitro DGK inhibition; type: biochemical; settings: read-out: DGKa LIPGLO IC50
T1 construct: TVMV protease cleavage site (C); Hexa-His (C); made in house; host or cells: Sf9 insect cells (baculovirus, Bac-to-Bac)

human DGKζ = target: T2, human DGKζ (Homo sapiens, UniProt Q13574); assay: DGKζ LIPGLO assay (extruded liposome substrate), in vitro DGK inhibition; type: biochemical; settings: read-out: DGKz LIPGLO IC50
T2 construct: TVMV protease cleavage site (C); Hexa-His (C); made in house; host or cells: Sf9 insect cells (baculovirus, Bac-to-Bac)
T2 sequence (Q13574 with tags, fused parts or gaps isoform Q13574-4): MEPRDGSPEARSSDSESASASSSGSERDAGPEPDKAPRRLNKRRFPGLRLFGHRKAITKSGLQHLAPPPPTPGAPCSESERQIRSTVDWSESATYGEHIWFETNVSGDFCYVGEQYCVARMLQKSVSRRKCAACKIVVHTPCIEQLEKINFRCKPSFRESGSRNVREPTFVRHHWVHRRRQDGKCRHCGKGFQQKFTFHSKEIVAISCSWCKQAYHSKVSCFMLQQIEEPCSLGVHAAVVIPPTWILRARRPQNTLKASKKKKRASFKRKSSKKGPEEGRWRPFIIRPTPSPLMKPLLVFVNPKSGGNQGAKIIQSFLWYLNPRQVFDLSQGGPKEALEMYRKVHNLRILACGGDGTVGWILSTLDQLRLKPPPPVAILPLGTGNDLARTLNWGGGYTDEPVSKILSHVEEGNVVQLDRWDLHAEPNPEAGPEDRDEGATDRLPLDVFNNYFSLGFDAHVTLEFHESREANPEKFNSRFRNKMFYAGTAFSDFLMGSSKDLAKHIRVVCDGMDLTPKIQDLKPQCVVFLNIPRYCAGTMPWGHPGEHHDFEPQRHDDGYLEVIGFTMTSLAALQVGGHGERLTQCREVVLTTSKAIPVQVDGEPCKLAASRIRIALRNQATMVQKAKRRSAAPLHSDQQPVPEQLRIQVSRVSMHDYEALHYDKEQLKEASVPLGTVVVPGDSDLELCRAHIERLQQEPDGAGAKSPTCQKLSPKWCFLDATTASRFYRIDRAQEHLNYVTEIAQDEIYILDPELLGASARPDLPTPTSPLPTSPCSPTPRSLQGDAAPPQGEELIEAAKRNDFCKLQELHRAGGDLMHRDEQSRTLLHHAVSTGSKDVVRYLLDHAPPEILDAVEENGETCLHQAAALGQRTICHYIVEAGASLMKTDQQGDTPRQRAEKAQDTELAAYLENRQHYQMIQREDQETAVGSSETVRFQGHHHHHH

T1 sequence (P23743 with tags, fused parts or gaps): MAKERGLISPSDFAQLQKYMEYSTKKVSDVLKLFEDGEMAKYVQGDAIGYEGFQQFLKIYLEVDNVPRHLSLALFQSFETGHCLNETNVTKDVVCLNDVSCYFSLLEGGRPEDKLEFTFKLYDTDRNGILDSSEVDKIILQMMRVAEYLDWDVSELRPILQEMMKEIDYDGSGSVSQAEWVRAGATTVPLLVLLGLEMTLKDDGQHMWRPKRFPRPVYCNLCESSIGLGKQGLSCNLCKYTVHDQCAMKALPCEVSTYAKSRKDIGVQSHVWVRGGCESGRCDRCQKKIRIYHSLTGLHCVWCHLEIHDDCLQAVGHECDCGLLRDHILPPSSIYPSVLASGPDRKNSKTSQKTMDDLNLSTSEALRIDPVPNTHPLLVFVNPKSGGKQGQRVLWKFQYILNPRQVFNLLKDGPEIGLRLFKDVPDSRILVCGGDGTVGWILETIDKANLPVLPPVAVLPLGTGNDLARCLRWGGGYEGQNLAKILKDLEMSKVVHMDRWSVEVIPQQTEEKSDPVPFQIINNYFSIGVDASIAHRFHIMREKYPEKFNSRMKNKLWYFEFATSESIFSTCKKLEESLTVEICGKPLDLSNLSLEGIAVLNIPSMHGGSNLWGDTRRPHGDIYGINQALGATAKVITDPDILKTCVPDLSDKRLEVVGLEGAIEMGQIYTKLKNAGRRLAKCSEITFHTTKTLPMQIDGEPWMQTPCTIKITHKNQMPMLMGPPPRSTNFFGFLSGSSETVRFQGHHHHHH

Row | Structure (SMILES) | IC50 (human DGKα; liposome (LIPGLO) assay) | IC50 (human DGKζ; liposome (LIPGLO) assay) | IC50 (human DGKα; DGKα liposome (LIPGLO) assay) | IC50 (human DGKζ; DGKζ liposome (LIPGLO) assay)
1 | C[C@@H]1CN(c2cc(=O)n(C)c3ccc(C#N)nc23)[C@@H](C)CN1Cc1cn(C)nn1 [Example 1435] | 160 µM |  |  | 
2 | C[C@@H]1CN(C(c2ccc(F)cc2)c2ccc(F)cc2)[C@@H](C)CN1c1c(C#N)c(=O)n(C)c2ccc(Br)nc12 [Example 5, 4-((2R,5S)-4-(bis(4-fluorophenyl)methyl)-2,5-dimethylpiperazin-1-yl)-6-bromo-1-methyl-2-oxo-1,2-dihydro-1,5-naphthyridine-3-carbonitrile] | 23 µM | 42 µM |  | 
3 | C[C@@H]1CN(c2cc(=O)n(C)c3ccc(C#N)nc23)[C@@H](C)CN1CCc1ccccc1 [Example 632] | 6.5 µM | 11 µM |  | 
4 | Cc1ccc(C(c2cccc(F)c2)N2C[C@H](C)N(c3cc(=O)n(C)c4ccc(C#N)nc34)C[C@H]2CO)nc1 (stereo partly shown) [Example 1153] | 6.6 µM | 32 µM |  | 
5 | C[C@@H]1CN(c2cc(=O)n(C)c3ccc(C#N)nc23)[C@@H](C)CN1C(c1ccc(OC(F)(F)F)cc1F)C1CC1 (stereo partly drawn) [Example 481, 8-((2S,5R)-4-(cyclopropyl(2-fluoro-4-(trifluoromethoxy)phenyl)methyl)-2,5-dimethylpiperazin-1-yl)-5-methyl-6-oxo-5,6-dihydro-1,5-naphthyridine-2-carbonitrile] | 1.4 µM | 1.8 µM |  | 
6 | CC(C)[C@H]1CN(c2c(C#N)c(=O)n(C)c3ccc(Br)nc23)CCN1C(c1ccc(F)cc1)c1ccc(F)cc1 [Example 11, (S)-4-(4-(bis(4-fluorophenyl)methyl)-3-isopropylpiperazin-1-yl)-6-bromo-1-methyl-2-oxo-1,2-dihydro-1,5-naphthyridine-3-carbonitrile] | 3.6 µM | 240 µM |  | 
7 | CCC(c1ccc(F)c(F)c1)N1C[C@H](C)N(c2cc(=O)n(C)c3ccc(C#N)nc23)C[C@H]1C (single isomer, unassigned) [Example 411] | 22 µM | 19 µM |  | 
8 | C[C@@H]1CN(c2cc(=O)n(C)c3ccc(C#N)nc23)[C@@H](C)CN1C(c1ccc(F)cc1)c1cnccn1 (single isomer, unassigned) [Example 674] | 0.4 µM | 4.3 µM |  | 
9 | CC[C@@H]1CN(c2cc(=O)n(C)c3ccc(C#N)nc23)[C@@H](C)CN1C(C)c1ccc(OC(F)(F)F)cc1F (single isomer, unassigned) [Example 1095] | 0.027 µM | 0.018 µM |  | 
10 | C[C@@H]1CN(c2c(C#N)c(=O)n(C)c3ccc(C#N)nc23)[C@@H](C)CN1C(c1ccc(F)cc1)c1cc(C2CC2)on1 (single isomer, unassigned) [Example 869] |  |  | 17 µM | 14 µM
11 | C[C@@H]1CN(c2cc(=O)n(C)c3ccc(C#N)nc23)[C@@H](C)CN1Cc1ccc(OC(F)(F)F)cc1F (single isomer, unassigned) [Example 624] | 0.66 µM | 24 µM |  | 
12 | Cn1c(=O)cc(N2CC(C3CC3)N(C(c3ccc(F)cc3)c3ccc(F)cc3)CC2C2CC2)c2nc(C#N)ccc21 (single isomer, unassigned) [Example 152, 8-(4-(bis(4-fluorophenyl)methyl)-2,5-dicyclopropylpiperazin-1-yl)-5-methyl-6-oxo-5,6-dihydro-1,5-naphthyridine-2-carbonitrile] | 7.7 µM | 240 µM |  | 
13 | CC[C@@H]1CN(c2cc(=O)n(C)c3ccc(C#N)nc23)[C@@H](C)CN1C(c1ccc(F)cc1)c1nc(C2CC2)no1 (stereo partly shown) [Example 1116] | 0.031 µM | 0.013 µM |  | 
14 | CC(c1ccc(OC(F)(F)F)cc1)N1C[C@@H](C)N(c2cc(=O)n(C)c3ccc(C#N)nc23)C[C@@H]1CO (single isomer, unassigned) [Example 1180] | 7.6 µM | 1.4 µM |  | 
15 | C[C@@H]1CN(c2cc(=O)n(C)c3ccc(C#N)nc23)[C@@H](C)CN1C(c1cccc(F)c1)c1ccccn1 (stereo partly drawn) [Example 404, 8-((2S,5R)-4-((3-fluorophenyl)(pyridin-2-yl)methyl)-2,5-dimethylpiperazin-1-yl)-5-methyl-6-oxo-5,6-dihydro-1,5-naphthyridine-2-carbonitrile] | 0.36 µM | 4.1 µM |  | 
16 | Cn1c(=O)cc(N2CCN(C(c3ccc(F)cc3)c3ccc(F)cc3)CC2C(N)=O)c2nc(C#N)ccc21 (single isomer, unassigned) [Example 141, 4-(bis(4-fluorophenyl)methyl)-1-(6-cyano-1-methyl-2-oxo-1,2-dihydro-1,5-naphthyridin-4-yl)piperazine-2-carboxamide] | 240 µM | 200 µM |  | 
17 | CC[C@@H]1CN(c2cc(=O)n(C)c3ccc(C#N)nc23)[C@@H](CC)CN1Cc1ccc(F)cc1 [Example 1061] | 0.011 µM | 0.1 µM |  | 
18 | C[C@@H]1CN(c2c(C#N)c(=O)n(C)c3ccc(C#N)nc23)CCN1C(c1ccc(Cl)cc1)c1ncccc1F (stereo partly shown) [Example 909] |  |  | 3.4 µM | 16 µM
19 | CC[C@H]1CN(C(c2ccc(F)cc2)c2nc(C3CC3)no2)[C@H](CC)CN1c1cc(=O)n(C)c2ccc(C#N)nc12 (stereo partly shown) [Example 1064] | 0.08 µM | 0.039 µM |  | 
20 | Cn1c(=O)c(C#N)c(N2CCN(C(c3ccc(F)cc3)c3ccc(F)cc3)C(C(=O)O)C2)c2nc(Br)ccc21 (stereo not shown) [Example 52, 1-(bis(4-fluorophenyl)methyl)-4-(6-bromo-3-cyano-1-methyl-2-oxo-1,2-dihydro-1,5-naphthyridin-4-yl)piperazine-2-carboxylic acid] | 24 µM | 150 µM |  | 
21 | COC[C@@H]1CN(c2cc(=O)n(C)c3ccc(C#N)nc23)[C@@H](C)CN1C(C)c1ccc(OC(F)(F)F)cc1 (single isomer, unassigned) [Example 1162] | 0.48 µM | 0.55 µM |  | 
22 | CC(c1ccc(F)c(C#N)c1)N1C[C@H](C)N(c2cc(=O)n(C)c3ccc(C#N)nc23)C[C@H]1C (stereo partly shown) [Example 1262] | 5.4 µM | 1.3 µM |  | 
23 | C[C@@H]1CN(c2cc(=O)n(C)c3ccc(C#N)nc23)[C@@H](C)CN1C(c1ccc(F)cc1)c1noc(C(C)(C)C)n1 (single isomer, unassigned) [Example 764] |  |  | 0.051 µM | 0.53 µM
24 | CC[C@@H]1CN(c2cc(=O)n(C)c3ccc(C#N)nc23)[C@@H](C)CN1C(C)c1ccc(C(F)(F)F)cc1 (single isomer, unassigned) [Example 1094] | 0.46 µM | 2.1 µM |  | 
25 | CC[C@H]1CN(C(c2ccc(F)cc2)c2nc(C3CC3)no2)[C@H](CC)CN1c1cc(=O)n(C)c2ccc(C#N)nc12 (stereo partly shown) [Example 1065] |  | 0.031 µM |  | 

Further lines, results first:

Row | IC50 (human DGKα; liposome (LIPGLO) assay) | IC50 (human DGKζ; liposome (LIPGLO) assay) | IC50 (human DGKα; DGKα liposome (LIPGLO) assay) | IC50 (human DGKζ; DGKζ liposome (LIPGLO) assay) | Structure (SMILES)
26 | 0.023 µM | 0.04 µM |  |  | CCC(c1ccc(OC(F)(F)F)cc1F)N1C[C@H](CC)N(c2cc(=O)n(C)c3ccc(C#N)nc23)C[C@H]1CC (single isomer, unassigned) [Example 1057]
27 | 0.82 µM | 9.3 µM |  |  | C[C@@H]1CN(c2cc(=O)n(C)c3ccc(C#N)nc23)[C@@H](C)CN1C(c1ccc(F)cc1)c1ccncn1 (single isomer, unassigned) [Example 402]
28 | 0.094 µM | 1.1 µM |  |  | CC(c1ccc(OC(F)F)cn1)N1C[C@H](C)N(c2cc(=O)n(C)c3ccc(C#N)nc23)C[C@H]1C (stereo partly shown) [Example 653]
29 | 5.5 µM | 1.6 µM |  |  | CCOC[C@@H]1CN(c2cc(=O)n(C)c3ccc(C#N)nc23)[C@@H](C)CN1C(C)c1ccc(OC(F)(F)F)cc1 (single isomer, unassigned) [Example 1398]
30 |  |  | 8.6 µM | 5.4 µM | C[C@@H]1CN(c2c(C#N)c(=O)n(C)c3ccc(C#N)nc23)CCN1C(c1ccc(F)cc1)c1cccc2c1OC(C)(C)C2 (single isomer, unassigned) [Example 934]
31 | 2.6 µM | 6 µM |  |  | C[C@@H]1CN(c2cc(=O)n(C)c3ccc(C#N)nc23)[C@@H](C)CN1C(CF)c1ccc(F)cc1 (mixture of isomers) [Example 556, 8-[(2S,5R)-4-[2-fluoro-1-(4-fluorophenyl)ethyl]-2,5-dimethylpiperazin-1-yl]-5-methyl-6-oxo-5,6-dihydro-1,5-naphthyridine-2-carbonitrile]
32 | 1.6 µM | 9.2 µM |  |  | Cc1cc(OC(F)(F)F)ccc1CN1C[C@H](C)N(c2cc(=O)n(C)c3ccc(C#N)nc23)C[C@H]1C [Example 608]
33 | 36 µM | 1.1 µM |  |  | C[C@@H]1CN(c2cc(=O)n(C)c3ccc(C#N)nc23)[C@@H](C)CN1C(c1ccc(Cl)cc1)c1ccc(F)c2c1OC(C)(C)C2 (single isomer, unassigned) [Example 459]
34 | 4.1 µM | 1.8 µM |  |  | CC[C@@H]1CN(c2cc(=O)n(C)c3ccc(C#N)nc23)[C@@H](C)CN1C(C)c1c(F)cc(F)cc1F (single isomer, unassigned) [Example 1090]
35 |  |  | 0.33 µM | 5.6 µM | C[C@@H]1CN(c2c(C#N)c(=O)n(C)c3ccc(C#N)nc23)[C@@H](C)CN1C(c1ccc(F)cc1)c1cscn1 (single isomer, unassigned) [Example 856]
36 |  |  | 24 µM | 120 µM | COC(=O)c1ccc(C(C)N2C[C@H](C)N(c3c(C#N)c(=O)n(C)c4ccc(C#N)nc34)C[C@H]2C)cc1 (single isomer, unassigned) [Example 794]
37 | 0.091 µM | 7.4 µM |  |  | C[C@@H]1CN(c2cc(=O)n(C)c3ccc(C#N)nc23)[C@@H](C)CN1Cc1ccc(OC(F)F)cc1 [Example 588]
38 | 11 µM | 5.6 µM |  |  | C[C@@H]1CN(c2cc(=O)n(C)c3ccc(C#N)nc23)[C@@H](C)CN1Cc1nnc(C(F)(F)F)o1 [Example 1436]
39 | 9.6 µM | 22 µM |  |  | C[C@H]1CN(C(c2ccc(F)cc2)c2ccc(F)cc2)[C@H](CO)CN1c1cc(=O)n(C)c2ccc(C#N)nc12 [Example 1151]
40 | 77 µM | 2.5 µM |  |  | CC(c1ccc(OC(F)(F)F)cc1)N1C[C@@H](C)N(c2cc(=O)n(C)c3ccc(C#N)nc23)C[C@@H]1CO (single isomer, unassigned) [Example 1181]
41 | 150 µM |  |  |  | Cc1nnc(C(C)N2C[C@H](C)N(c3cc(=O)n(C)c4ccc(C#N)nc34)C[C@H]2C)o1 (stereo partly shown) [Example 1437]
